From ChEMBL document CHEMBL2321873, “1-(4-Phenylpiperazin-1-yl)-2-(1H-pyrazol-1-yl)ethanones as novel CCR1 antagonists” (Bioorg Med Chem Lett, 2013)
The source made the active and inactive calls. The rule behind the calls is not given here.

How the values were obtained:
[1] = target: C-C chemokine receptor type 1 (Mus musculus, UniProt P51675); test: Displacement of [125I]-CCL3/MIP-1alpha from CCR1 in mouse WEHI274.1 cells; type: cell-based
[2] = test system: Salmonella typhimurium; test: Genotoxicity in Salmonella typhimurium by Ames test in presence of S9 fractions; type: toxicity, organism-based, S9 Fraction; conditions: salmonella enterica subsp. enterica serovar typhimurium
[3] = target: C-C chemokine receptor type 2 (Homo sapiens) (UniProt P41597); test: Antagonist activity at CCR2 (unknown origin) assessed as inhibition of chemotaxis at 10 uM
[4] = target: Cytochrome P450 3A4 (Homo sapiens, UniProt P08684); test: Competitive inhibition of CYP3A4 (unknown origin); type: ADME
[5] = target: T1, G protein-coupled receptor (Human herpesvirus 8) (UniProt Q76SF8); test: Antagonist activity at HHV8 ORF74 assessed as inhibition of chemotaxis at 10 uM; conditions: Human gammaherpesvirus 8
T1 sequence (whole entry): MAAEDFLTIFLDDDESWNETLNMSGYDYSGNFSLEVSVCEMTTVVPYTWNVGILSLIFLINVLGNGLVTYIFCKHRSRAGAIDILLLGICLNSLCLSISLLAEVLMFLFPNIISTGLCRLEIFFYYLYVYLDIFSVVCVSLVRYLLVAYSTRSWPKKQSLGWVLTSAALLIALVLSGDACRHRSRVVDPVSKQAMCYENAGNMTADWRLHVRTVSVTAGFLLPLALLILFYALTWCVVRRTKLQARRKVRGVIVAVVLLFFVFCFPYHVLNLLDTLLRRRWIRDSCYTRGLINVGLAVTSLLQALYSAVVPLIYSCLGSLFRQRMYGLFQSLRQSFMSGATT

[6] = target: Atypical chemokine receptor 3 (Homo sapiens) (UniProt P25106); test: Antagonist activity at CXCR7 (unknown origin) assessed as inhibition of calcium flux at 10 uM; type: functional
[7] = target: T2, C-C chemokine receptor type 9 (Homo sapiens) (UniProt P51686); test: Binding affinity to CCR9 (unknown origin) at 10 uM by radioligand displacement assay
T2 sequence (whole entry): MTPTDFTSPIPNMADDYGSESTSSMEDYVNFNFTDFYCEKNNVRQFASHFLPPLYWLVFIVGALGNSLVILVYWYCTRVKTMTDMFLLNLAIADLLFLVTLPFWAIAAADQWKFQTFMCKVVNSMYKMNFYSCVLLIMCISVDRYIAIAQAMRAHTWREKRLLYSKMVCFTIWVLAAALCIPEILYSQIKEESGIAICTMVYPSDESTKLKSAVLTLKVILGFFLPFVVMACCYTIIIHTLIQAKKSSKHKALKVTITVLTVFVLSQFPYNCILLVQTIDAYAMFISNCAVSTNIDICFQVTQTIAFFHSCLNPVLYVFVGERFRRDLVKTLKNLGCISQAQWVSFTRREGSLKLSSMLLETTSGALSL

[8] = test system: Rattus norvegicus; test: Acute toxicity in Sprague-Dawley rat up to 1000 mg/kg; type: organism-based; parameters: dose 1000 mg/kg; conditions: in vivo
[9] = test system: Rattus norvegicus; test: Toxicity in Sprague-Dawley rat assessed as effect on body weight at 70 to 360 mg/kg, po after 7 days; type: organism-based; parameters: dose 70-360 mg/kg, route oral; conditions: in vivo, 168 h
[10] = target: T3, C-X-C chemokine receptor type 3 (Homo sapiens) (UniProt P49682); test: Binding affinity to CXCR3 (unknown origin) at 10 uM by radioligand displacement assay
T3 sequence (whole entry): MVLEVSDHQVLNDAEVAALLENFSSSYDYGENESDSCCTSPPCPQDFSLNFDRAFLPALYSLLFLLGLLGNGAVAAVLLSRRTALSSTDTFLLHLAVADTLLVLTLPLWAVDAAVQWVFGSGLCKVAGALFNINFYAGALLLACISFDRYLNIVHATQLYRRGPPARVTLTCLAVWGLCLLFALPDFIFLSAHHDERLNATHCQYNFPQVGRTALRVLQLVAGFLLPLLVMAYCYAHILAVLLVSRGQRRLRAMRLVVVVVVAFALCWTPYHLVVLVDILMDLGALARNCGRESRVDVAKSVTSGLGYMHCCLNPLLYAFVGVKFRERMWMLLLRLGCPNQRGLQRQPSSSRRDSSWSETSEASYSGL

[11] = target: C-X-C chemokine receptor type 4 (Homo sapiens) (UniProt P61073); test: Binding affinity to CXCR4 (unknown origin) at 10 uM by radioligand displacement assay
[12] = target: C-X-C chemokine receptor type 4 (Homo sapiens) (UniProt P61073); test: Antagonist activity at CXCR4 (unknown origin) assessed as inhibition of calcium flux at 10 uM; type: functional
[13] = target: C-C chemokine receptor type 2 (Homo sapiens) (UniProt P41597); test: Binding affinity to CCR2 (unknown origin) at 10 uM by radioligand displacement assay
[14] = target: T4, C-X-C chemokine receptor type 5 (Homo sapiens) (UniProt P32302); test: Antagonist activity at CXCR5 (unknown origin) assessed as inhibition of chemotaxis at 10 uM
T4 sequence (whole entry): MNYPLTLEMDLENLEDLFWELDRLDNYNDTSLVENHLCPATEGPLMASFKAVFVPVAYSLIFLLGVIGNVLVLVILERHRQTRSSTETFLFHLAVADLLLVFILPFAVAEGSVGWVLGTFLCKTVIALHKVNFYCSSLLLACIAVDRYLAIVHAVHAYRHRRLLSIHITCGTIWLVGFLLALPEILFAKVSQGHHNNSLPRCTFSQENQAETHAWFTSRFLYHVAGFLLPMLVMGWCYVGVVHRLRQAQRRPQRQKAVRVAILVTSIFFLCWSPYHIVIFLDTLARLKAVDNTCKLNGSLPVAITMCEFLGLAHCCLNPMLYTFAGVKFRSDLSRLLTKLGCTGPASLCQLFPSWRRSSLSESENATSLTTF

[15] = target: Atypical chemokine receptor 3 (Homo sapiens) (UniProt P25106); test: Antagonist activity at CXCR7 (unknown origin) assessed as inhibition of chemotaxis at 10 uM
[16] = target: T5, C-C chemokine receptor type 7 (Homo sapiens) (UniProt P32248); test: Binding affinity to CCR7 (unknown origin) at 10 uM by radioligand displacement assay
T5 sequence (whole entry): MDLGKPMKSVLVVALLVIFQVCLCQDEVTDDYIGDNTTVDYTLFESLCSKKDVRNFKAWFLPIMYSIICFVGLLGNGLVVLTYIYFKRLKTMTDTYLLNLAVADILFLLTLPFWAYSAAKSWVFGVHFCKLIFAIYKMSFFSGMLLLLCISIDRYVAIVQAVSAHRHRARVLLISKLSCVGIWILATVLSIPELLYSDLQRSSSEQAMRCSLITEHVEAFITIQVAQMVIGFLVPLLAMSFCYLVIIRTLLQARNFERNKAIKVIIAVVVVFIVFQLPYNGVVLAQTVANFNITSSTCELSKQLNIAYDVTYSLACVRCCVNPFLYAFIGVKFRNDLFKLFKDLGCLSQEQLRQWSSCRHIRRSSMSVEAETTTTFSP

Sequence of C-X-C chemokine receptor type 4 (Homo sapiens) (P61073 whole entry): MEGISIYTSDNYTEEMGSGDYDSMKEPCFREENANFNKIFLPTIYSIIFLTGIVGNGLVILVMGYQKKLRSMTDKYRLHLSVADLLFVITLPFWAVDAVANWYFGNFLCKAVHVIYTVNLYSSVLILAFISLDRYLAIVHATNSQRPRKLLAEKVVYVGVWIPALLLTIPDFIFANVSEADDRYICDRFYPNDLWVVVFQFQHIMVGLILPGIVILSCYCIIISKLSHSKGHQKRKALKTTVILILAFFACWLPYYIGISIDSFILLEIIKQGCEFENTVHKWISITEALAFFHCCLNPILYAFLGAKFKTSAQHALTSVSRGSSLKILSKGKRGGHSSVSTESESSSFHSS
Sequence of C-C chemokine receptor type 2 (Homo sapiens) (P41597 whole entry, looked up): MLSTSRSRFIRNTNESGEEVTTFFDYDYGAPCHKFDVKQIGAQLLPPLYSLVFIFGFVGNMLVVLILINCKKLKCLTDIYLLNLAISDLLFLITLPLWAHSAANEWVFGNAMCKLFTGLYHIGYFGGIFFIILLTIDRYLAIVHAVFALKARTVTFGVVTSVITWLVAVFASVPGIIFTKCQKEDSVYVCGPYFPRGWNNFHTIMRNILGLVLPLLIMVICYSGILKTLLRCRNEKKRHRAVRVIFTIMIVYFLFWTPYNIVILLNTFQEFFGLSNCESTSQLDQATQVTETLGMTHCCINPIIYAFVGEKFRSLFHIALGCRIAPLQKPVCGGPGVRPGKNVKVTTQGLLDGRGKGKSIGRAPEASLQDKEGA
Sequence of Atypical chemokine receptor 3 (Homo sapiens) (P25106 whole entry): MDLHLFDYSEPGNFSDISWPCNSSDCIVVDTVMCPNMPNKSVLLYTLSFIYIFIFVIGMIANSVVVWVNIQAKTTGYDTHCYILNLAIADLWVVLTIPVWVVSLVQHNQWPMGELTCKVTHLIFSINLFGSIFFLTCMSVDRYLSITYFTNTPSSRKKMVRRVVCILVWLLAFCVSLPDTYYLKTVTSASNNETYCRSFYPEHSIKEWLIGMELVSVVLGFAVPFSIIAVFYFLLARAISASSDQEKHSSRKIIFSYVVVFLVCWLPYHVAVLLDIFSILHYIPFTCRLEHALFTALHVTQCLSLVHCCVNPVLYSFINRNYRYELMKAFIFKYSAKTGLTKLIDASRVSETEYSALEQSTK
Sequence of C-C chemokine receptor type 1 (P51675 whole entry): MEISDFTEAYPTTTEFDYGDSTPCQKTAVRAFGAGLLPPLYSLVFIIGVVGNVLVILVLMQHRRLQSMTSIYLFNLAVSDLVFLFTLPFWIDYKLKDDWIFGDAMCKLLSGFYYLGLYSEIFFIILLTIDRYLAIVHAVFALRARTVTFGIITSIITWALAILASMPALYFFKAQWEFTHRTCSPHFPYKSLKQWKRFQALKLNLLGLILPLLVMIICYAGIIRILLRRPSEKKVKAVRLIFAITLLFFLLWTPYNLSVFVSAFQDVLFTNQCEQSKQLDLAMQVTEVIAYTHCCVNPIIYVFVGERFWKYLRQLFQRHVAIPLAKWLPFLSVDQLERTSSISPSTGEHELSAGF
Sequence of Cytochrome P450 3A4 (P08684 whole entry): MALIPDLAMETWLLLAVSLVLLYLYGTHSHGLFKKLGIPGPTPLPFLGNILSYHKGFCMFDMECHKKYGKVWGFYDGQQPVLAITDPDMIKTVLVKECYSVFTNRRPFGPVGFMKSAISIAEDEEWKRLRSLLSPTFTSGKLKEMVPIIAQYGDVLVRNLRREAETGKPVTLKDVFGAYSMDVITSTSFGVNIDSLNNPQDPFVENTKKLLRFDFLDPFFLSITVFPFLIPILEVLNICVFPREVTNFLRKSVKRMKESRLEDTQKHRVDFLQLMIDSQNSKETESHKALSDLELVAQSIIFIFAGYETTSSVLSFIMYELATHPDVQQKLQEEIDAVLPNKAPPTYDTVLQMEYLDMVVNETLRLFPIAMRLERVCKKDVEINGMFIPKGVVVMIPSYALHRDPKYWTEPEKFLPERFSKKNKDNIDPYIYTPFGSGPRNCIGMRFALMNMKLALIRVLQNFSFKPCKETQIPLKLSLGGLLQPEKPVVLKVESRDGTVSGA

Question: How did the IC50 [1] turn out when COc1cc(N2CCN(C(=O)Cn3nc(C(F)(F)F)c(Cl)c3C)CC2)ccc1Cl was run?
Answer: The IC50 was 3 µM.

Question: And the Activity [2]?
Answer: The Activity was “Non-toxic”.

Question: What about the inhibition [3] of the same compound?
Answer: The inhibition was “inactive”.

Question: What about the IC50 [4] of the same compound?
Answer: The IC50 was greater than 10 µM.

Question: What about the inhibition [5] of the same compound?
Answer: The inhibition was “inactive”.

Question: What about the inhibition [6] of the same compound?
Answer: The inhibition was “inactive”.

Question: And the Activity [7]?
Answer: The Activity was “inactive”.

Question: And the Activity [8]?
Answer: Its Activity is “Non-toxic”.

Question: What about the Activity [9] of the same compound?
Answer: Its Activity is “Non-toxic”.

Question: What about the Activity [10] of the same compound?
Answer: Its Activity is “inactive”.

Question: What about the Activity [11] of the same compound?
Answer: Its Activity is “inactive”.

Question: What about the inhibition [12] of the same compound?
Answer: The inhibition was “inactive”.

Question: And the Activity [13]?
Answer: The Activity was “inactive”.

Question: And the inhibition [14]?
Answer: The inhibition was “inactive”.

Question: And the inhibition [15]?
Answer: The inhibition was “inactive”.

Question: What about the Activity [16] of the same compound?
Answer: The Activity was “inactive”.
